Several values for one entry are separate records, joined by “and”; a condition that tells them apart may be missing. Equal values may be shown once. Read-outs that look alike come from different tables or passages of the source.
Assays:
A2AR [1] = conditions: read-out: Ki (r); rat; cited from earlier work
[2] = Chemical stability in saline, PBS and n-octanol at 37 °C; type: physicochemical; conditions: up to 60 min
Experimental: (§1) The chemical stability of [^18F]TOZ1 was investigated in isotonic saline, phosphate-buffered saline (PBS, pH 7.4) and n-octanol by incubation at 37 °C. Samples were taken at 15, 30 and 60 min of incubation time and analyzed by radio-TLC and radio-HPLC. The logD7.4 value of [^18F]TOZ1 was experimentally determined in n-octanol/PBS at RT by the shake-flask method. The measurements were performed in triplicate.

A2AR [3] = assay: In vitro autoradiography on pig brain cryosections; type: binding
Experimental: (§2) Brains of CD-1 mice and piglets frozen in isopentane were cut using a cryostat, thaw-mounted onto microscope slides, and after air-drying stored at −80 °C until use. Briefly, the brain cryosections were dried in a stream of cold air, and pre-incubated in 50 mM TRIS HCl buffer (pH 7.4, 100 mM NaCl, 5 mM MgCl2, 1 mM EDTA) containing 1 µU/mL adenosine deaminase (ADA) for 15 min at RT. Afterwards, brain sections were incubated with 0.1 MBq/mL of [^18F]TOZ1 (1.1 nM) in buffer for 90 min at RT. Non-specific binding was determined in the presence of 1 µM ZM241385. Displacement was evaluated with different concentrations of TOZ1 in order to determine the binding affinity towards the A2AR. Subsequently, the sections were washed twice for 5 min in ice-cold TRIS-HCl buffer and dipped for 5 s in ice-cold deionized water. The sections were rapidly dried in a stream of cold air before being exposed overnight on an imaging plate. Developed autoradiographs were analyzed in a phosphor imager (HD-CR 35; Duerr NDT GmbH; Bietigheim-Bissingen, Germany). Quantification was performed by using 2D-densitometric analysis (AIDA 2.31 software; raytest Isotopenmessgeräte GmbH; Straubenhardt, Germany).

A2AR [4] = target: T1, A2AR (Mus musculus, UniProt Q60613); assay: Dynamic PET/MR imaging in CD-1 mice; type: in vivo
T1 construct: from tissue; host or cells: living CD-1 mice, brain regions (in vivo PET/MR)
Experimental: For the time of the experiments, CD-1 mice were kept in a dedicated climatic chamber with free access to water and food under a 12:12 h dark:light cycle at a constant temperature (24 °C). The animals were anaesthetized (anesthesia unit U-410; agntho’s; Lidingö; Sweden) with isoflurane (1.8%, 0.35 L/min) delivered in a 40% oxygen/60% air mixture (Gas Blender 100 Series; MCQ instruments; Rome, Italy) and maintained at 37 °C with a thermal bed system. The formulated radiotracer was injected into the tail vein ([^18F]TOZ1: […] in 150 µL isotonic saline; Am: 66 GBq/µmol; 7.9 ± 5.8 nmol/kg) followed by a 60 min PET/MR scan (PET/MR 1Tesla; nanoScan®; MEDISO Medical Imaging Systems; Budapest, Hungary): 7 baseline studies with vehicle (DMSO/Kolliphor/NaCl, 1:2:7, v/v/v), 3 pre-treatment studies with tozadenant (2.5 mg/kg; abcr GmbH; Karlsruhe, Germany) and 4 pre-treatment studies with cyclosporine A (50 mg/kg; Sigma Aldrich, Germany). Each PET image was corrected for random coincidences, dead time, scatter and attenuation (AC), based on a whole body (WB) MR scan. The list mode data were sorted into sinograms using a framing scheme of 12 × 10 s, 6 × 30 s, 5 × 300 s, […]. The reconstruction parameters for the list mode data were 3D-ordered subset expectation maximization (OSEM), 4 iterations, 6 subsets, energy window: 400–600 keV, coincidence mode: 1–5, ring difference: 81. The mice were positioned prone in a special mouse bed (heated up to 37 °C), with the head fixed to a mouth piece for the anesthetic gas supply with isoflurane in 60% air and 40% oxygen (anesthesia unit: U-410, agnthos, Lidingö, Sweden; Gas blender: MCQ, Rome, Italy). The PET data were collected by a continuous WB scan during the entire investigation. Following the 60 min PET scan a T1 weighted WB gradient echo sequence (TR/TE: 20/6.4 ms, NEX: 1, FA: 25, FOV: 64 × 64 mm, matrix: 128 × 128, slice thickness: 0.5 mm) was performed for AC and anatomical orientation. Image registration and evaluation of the volumes of interest (VOI) was done with PMOD 3.9 (PMOD technologies LLC; Zurich, Switzerland). The respective brain regions were identified using the mouse brain atlas template Ma-Benveniste-Mirrione-FDG. Spherical VOI with diameters of 1 to 2 mm were placed at the center of the liver, stomach and spleen. Gallbladder, small intestine, kidney, and bladder VOI were delineated from the PET signal. Heart wall, stomach wall and blood were delineated from the T1 weighted image avoiding spill over from neighboring organs. The activity data are expressed as mean SUV + SEM of the overall VOI.

A2AR [5] = target: T1, A2AR; assay: In vitro autoradiography on mouse brain cryosections; type: binding
Experimental: as §2

[6] = Distribution coefficient LogD7.4, n-octanol/PBS, shake-flask method; type: physicochemical; conditions: pH 7.4, n-octanol–PBS, n = 3
Experimental: as §1

[7] = In vivo metabolism (radiometabolite analysis) in CD-1 mice; set-up: species or system mouse; conditions: 30 min p.i., n = 2
Experimental: The radiotracer was administered i.v. as bolus in awake CD-1 mice (40 MBq [^18F]TOZ1; n = 2). At 30 min post injection (p.i.), blood samples were taken retroorbitally from the anesthetized animals. Plasma was separated by centrifugation at 8000 rpm at RT for 1 min (Centrifuge 5418; Eppendorf Vertrieb Deutschland GmbH; Wesseling-Berzdorf; Germany), and brain homogenized in 1 mL water on ice (10 strokes of a PTFE plunge at 1000 rpm in a borosilicate glass cylinder; Potter S Homogenizer; B. Braun Melsungen AG; Melsungen, Germany). For protein precipitation and extraction an ice-cold mixture of acetone/water (4/1; v/v) was used in a ratio of 4:1 (v/v) of solvent to plasma or brain homogenate, respectively. The samples were vortexed for 3 min, equilibrated on ice for 5 min, and centrifuged for 5 min at 10,000 rpm. After separating the supernatant, the precipitates were washed with 100 µL of the solvent mixture and subjected to the same procedure. The combined supernatants were concentrated at 75 °C under nitrogen flow to a final volume of approx. 100 µL and analyzed by analytical radio-HPLC (see section quality control). To determine the percentage of activity in the supernatants compared to total activity, aliquots of each step as well as the precipitates were quantified by a gamma counter (Wallac Wizard 1480; Perkin Elmer; Turku; Finland).

mA2AR = mA2AR (Mus musculus, UniProt Q60613); assay: Radioligand binding assay towards mouse A2AR; conditions: in-house; tozadenant value: unpublished data
A2AR [8] = target: T1, A2AR; set-up: method as in PMID 21843786, PMID 25061687, PMID 32252340; conditions: mice; cited from earlier work
[9] = set-up: method as in PMID 32252340; conditions: mice, 15 min p.i.; cited from earlier work

T1 sequence (Q60613 whole entry): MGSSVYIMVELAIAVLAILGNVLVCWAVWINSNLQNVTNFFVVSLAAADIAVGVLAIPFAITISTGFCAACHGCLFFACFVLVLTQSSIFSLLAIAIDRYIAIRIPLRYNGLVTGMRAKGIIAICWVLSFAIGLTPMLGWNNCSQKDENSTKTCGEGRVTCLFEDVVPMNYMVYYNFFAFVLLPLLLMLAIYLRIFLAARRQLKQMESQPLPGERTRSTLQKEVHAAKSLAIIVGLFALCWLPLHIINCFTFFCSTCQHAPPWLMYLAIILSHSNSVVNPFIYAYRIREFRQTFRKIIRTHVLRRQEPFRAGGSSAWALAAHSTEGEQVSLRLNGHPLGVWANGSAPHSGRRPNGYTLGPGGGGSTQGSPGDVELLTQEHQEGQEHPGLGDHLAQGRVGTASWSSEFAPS
Chain of mA2AR (Q60613 whole entry): as above

NECA
Ki (A2AR [1]): 8.3 nM

COc1ccc(N2CCOCC2)c2sc(NC(=O)c3ccc([18F])nc3)nc12 [[^18F]TOZ1]
stability in saline, PBS and n-octanol [2]: stability of [^18F]TOZ1 was proven in all tested media
binding in A2AR-poor regions (cerebellum, midbrain, cortex, thalamus) (A2AR [3]; pig brain): only negligible binding
binding in striatum displaced by co-incubation with 1 µM ZM241385 (A2AR [3]; pig striatum, 1 nM radiotracer): Approx. 60%
maximum SUV ratio (SUVr) striatum-to-cerebellum (A2AR [4]; baseline): 1.2
initial brain uptake, standardized uptake value (SUV) (A2AR [4]; between 1–5 min, baseline): 0.4
effect of pre-administration of cyclosporine A (P-gp inhibitor) on uptake in striatum and whole brain (A2AR [4]; cyclosporine A 50 mg/kg vs. vehicle, n = 4): a tendency to a higher uptake was observed in the striatum and the whole brain, but it was not significant
effect of pre-administration of tozadenant on activity accumulation in brain (A2AR [4]; tozadenant 2.5 mg/kg vs. vehicle, n = 3): could not reduce the accumulation of the activity in the brain
initial SUV in heart, stomach, spleen, liver (A2AR [4]; whole-body PET): < 5
SUV60 min bladder (A2AR [4]; whole-body PET, 60 min): 11.2
SUV60 min gallbladder (A2AR [4]; whole-body PET, 60 min): 39.2
SUV60 min small intestine (A2AR [4]; whole-body PET, 60 min): 26.3
total binding ratio striatum-to-cerebellum (A2AR [5]; in vitro binding studies): 1.7
binding in A2AR-poor regions (cerebellum, midbrain, cortex, thalamus) (A2AR [5]; mouse brain): only negligible binding
binding in striatum displaced by co-incubation with 1 µM ZM241385 (A2AR [5]; mouse striatum, 1 nM radiotracer): Approx. 60%
maximum receptor density (Bmax) (A2AR [5]; mouse striatum, homologous competition, n = 3): 287 ± 104 fmol/mg wet weight
Kd (A2AR [5]; mouse striatum, homologous competition, n = 3, read-out: equilibrium dissociation constant (KD)): 23 ± 5.5 nM
logD [6]: 1.74 ± 0.08
parent fraction in brain [7]: > 92% and 92%
Ki (mA2AR): 10 nM

Nc1nc2c(cnn2CCCc2ccc(OCCF)cc2)c2nc(-c3ccco3)nn12 [[^18F]FESCH]
maximum SUVr striatum-to-cerebellum (A2AR [8]): ~ 5
parent fraction in brain [9]: 71%
parent fraction in plasma [9]: 41%
